Assay results published in patent EP0512570B1, “Urea derivatives, processes for the preparation thereof and pharmaceutical composition comprising the same” (FUJISAWA PHARMACEUTICAL CO., LTD., priority 1991, dated 1992).

Target: Acyl-CoA : cholesterol acyltransferase (ACAT)
Assay: Acyl-CoA : cholesterol acyltransferase (ACAT) inhibitory activity
Format: biochemical, Japanese white rabbits
Details: enzyme from mucosal microsome fraction of small intestine of rabbits fed 2% cholesterol diet; [14C]oleoyl-CoA and endogenous cholesterol, 37°C for 5 minutes
Experimental: Acyl-CoA : cholesterol acyltransferase (ACAT) inhibitory activity
ACAT activity was measured by the method of Heider et al. described in Journal of Lipid Research, Vol. 24, page 1127 (1983). The enzyme ACAT was prepared from the mucosal microsome fraction of the small intestine of male, 18-week old Japanese white rabbits which had been fed diet containing 2% cholesterol for 8 weeks. The inhibitory activity of compounds were calculated by measuring the amount of the labeled cholesterol ester produced from [¹⁴C]oleoyl-CoA and endogenous cholesterol as follows. [¹⁴C]oleoyl-CoA and microsome were incubated with test compounds at 37°C for 5 minutes. The reaction was stopped by the addition of chloroform-methanol (2:1, V/V). Cholesterol ester fraction in the chloroform-methanol extracts was isolated by thin-layer chromatography and was counted their label.

| SMILES | IC50 [nM] |
| --- | --- |
| O=C(Nc1c(F)cc(F)cc1F)N(Cc1oc2ccccc2c1-c1ccccc1)C1CCCCCC1 [Example 3 - (10), N-Cycloheptyl-N-(3-phenylbenzofuran-2-ylmethyl)-N'-(2,4,6-trifluorophenyl)urea] | 24 |
| CCCCCCCN(Cc1oc2ccc(CC)cc2c1-c1ccc(Cl)cc1)C(=O)Nc1c(F)cc(F)cc1F [Example 3 - (35), N-[3-(4-Chlorophenyl)-5-ethylbenzofuran-2-ylmethyl]-N-heptyl-N'-(2,4,6-trifluorophenyl)urea] | 6.6 |
| Cc1ccc(-c2c(CN(Cc3ccccc3)C(=O)Nc3c(F)cc(F)cc3F)oc3ccc(Cl)cc23)cc1 [Example 6 - (6), N-Benzyl-N-[5-chloro-3-(4-methylphenyl)benzofuran-2-ylmethyl]-N'-(2,4,6-trifluorophenyl)urea] | 8.4 |
| CCCCCCCN(Cc1cc2ccccc2o1)C(=O)Nc1c(F)cc(F)cc1F [Example 3 - (9), N-(Benzofuran-2-ylmethyl)-N-heptyl-N'-(2,4,6-trifluorophenyl)urea] | 73 |
| Cc1ccc2oc(CN(Cc3ccco3)C(=O)Nc3c(F)cc(F)cc3F)c(-c3ccc(Br)cc3)c2c1 [Example 5 - (15), N-[3-(4-Bromophenyl)-5-methylbenzofuran-2-ylmethyl]-N-furfuryl-N'-(2,4,6-trifluorophenyl)urea] | 8.9 |

The remaining lines, values ahead:

| IC50 [nM] | SMILES |
| --- | --- |
| 7.4 | Cc1ccc2oc(CN(Cc3ccccc3)C(=O)Nc3c(F)cc(F)cc3F)c(-c3ccc(Cl)cc3)c2c1 [Example 6 - (2), N-Benzyl-N-[3-(4-chlorophenyl)-5-methylbenzofuran-2-ylmethyl]-N'-(2,4,6-trifluorophenyl)urea] |
| 4.4 | Cc1ccc(CN(Cc2oc3ccc(C)cc3c2-c2ccc(Cl)cc2)C(=O)Nc2c(F)cc(F)cc2F)cc1 [Example 6 - (7), N-[3-(4-Chlorophenyl)-5-methylbenzofuran-2-ylmethyl]-N-(4-methylbenzyl)-N'-(2,4,6-trifluorophenyl)urea] |
| 8.8 | Cc1ccc2oc(CN(Cc3ccc(F)cc3)C(=O)Nc3c(F)cc(F)cc3F)c(-c3ccc(Cl)cc3)c2c1 [Example 5 - (7), N-[3-(4-Chlorophenyl)-5-methylbenzofuran-2-ylmethyl]-N-(4-fluorobenzyl)-N'-(2,4,6-trifluorophenyl)urea] |
